Structure (SMILES)	melting point [°C]
COc1ccc(/C=C/C(=O)CC(=O)/C=C/c2ccccc2O)cc1O [CU084, (1E,6E)-1-(2-hydroxyphenyl)-7-(3-hydroxy-4-methoxyphenyl)hepta-1,6-diene-3,5-dione]	90 to 96
COc1ccc(/C=C/C(=O)CC(=O)/C=C/c2ccc(O)c(OC)c2)c(O)c1 [CU256, (1E,6E)-1-(2-hydroxy-4-methoxyphenyl)-7-(4-hydroxy-3-methoxyphenyl)hepta-1,6-diene-3,5-dione]	108 to 113
CCN(CC)c1ccc(/C=C/C(=O)CC(=O)/C=C/c2ccc(O)cc2)c(OCc2ccc(C(C)(C)C)cc2)c1 [CU452, (1E,6E)-1-[2-(4-tert-butylbenzyloxy)-4-diethylaminophenyl]-7-(4-hydroxyphenyl)hepta-1,6-diene-3,5-dione]	187 to 190
COc1ccc(/C=C/C(=O)CC(=O)/C=C/c2ccc(OC)c(O)c2)cc1 [CU065, (1E,6E)-1-(3-hydroxy-4-methoxyphenyl)-7-(4-methoxyphenyl)hepta-1,6-diene-3,5-dione]	137 to 140
COc1cc(O)cc(/C=C/C(=O)CC(=O)/C=C/c2cc(O)cc(OC)c2)c1 [CU358, (1E,6E)-1,7-bis(3-hydroxy-5-methoxyphenyl)hepta-1,6-diene-3,5-dione]	147 to 151
CCN(CC)c1ccc(/C=C/C(=O)CC(=O)/C=C/c2ccc(N(CC)CC)cc2OCC=C(C)C)c(OCC=C(C)C)c1 [CU431, (1E,6E)-1,7-bis(4-diethylamino-2-prenyloxyphenyl)hepta-1,6-diene-3,5-dione]	107 to 113
COc1cc(O)cc(/C=C/C(=O)CC(=O)/C=C/c2ccc(O)c(OC)c2)c1 [CU181, (1E,6E)-1-(3-hydroxy-5-methoxyphenyl)-7-(4-hydroxy-3-methoxyphenyl)hepta-1,6-diene-3,5-dione]	69 to 75
COc1cc(/C=C/C(=O)CC(=O)/C=C/c2ccc(OCCCN(C)C)cc2)ccc1O [CU018, (1E,6E)-1-[4-(3-dimethylaminopropoxy)phenyl]-7-(4-hydroxy-3-methoxyphenyl)hepta-1,6-diene-3,5-dione]	155 to 159
O=C(/C=C/c1ccc(O)cc1)CC(=O)/C=C/c1ccccc1CO [CU424, (1E,6E)-1-(2-hydroxymethylphenyl)-7-(4-hydroxyphenyl)hepta-1,6-diene-3,5-dione]	173 to 180
O=C(/C=C/c1cccc2cc[nH]c12)CC(=O)/C=C/c1cccc2cc[nH]c12 [CU392, (1E,6E)-1,7-bis(1H-indol-7-yl)hepta-1,6-diene-3,5-dione]	211 to 215
COc1cc(/C=C/C(=O)CC(=O)/C=C/c2ccc(O)cc2Cl)ccc1O [CU129, (1E,6E)-1-(2-chloro-4-hydroxyphenyl)-7-(4-hydroxy-3-methoxyphenyl)hepta-1,6-diene-3,5-dione]	185 to 192
COc1ccc(OC)c(/C=C/C(=O)CC(=O)/C=C/c2ccc(OC)c(O)c2)c1 [CU077, (1E,6E)-1-(2,5-dimethoxyphenyl)-7-(3-hydroxy-4-methoxyphenyl)hepta-1,6-diene-3,5-dione]	63 to 68
CN(C)c1ccc(-c2ccccc2)cc1/C=C/C(=O)CC(=O)/C=C/c1ccc(O)cc1 [CU537, (1E,6E)-1-(4-dimethylaminobiphenyl-3-yl)-7-(4-hydroxyphenyl)hepta-1,6-diene-3,5-dione]	82 to 88
COc1cc(/C=C/C(=O)CC(=O)/C=C/c2cccc(O)c2O)ccc1O [CU096, (1E,6E)-1-(2,3-dihydroxyphenyl)-7-(4-hydroxy-3-methoxyphenyl)hepta-1,6-diene-3,5-dione]	82 to 89
COc1cccc(/C=C/C(=O)CC(=O)/C=C/c2ccc(O)cc2)c1O [CU249, (1E,6E)-1-(2-hydroxy-3-methoxyphenyl)-7-(4-hydroxyphenyl)hepta-1,6-diene-3,5-dione]	169 to 175
COc1cc(/C=C/C(=O)CC(=O)/C=C/c2cccnc2)ccc1O [CU024, (1E,6E)-1-(4-hydroxy-3-methoxyphenyl)-7-(pyridin-3-yl)hepta-1,6-diene-3,5-dione]	176 to 179
O=C(/C=C/c1ccc(O)cc1)CC(=O)/C=C/c1cc(O)c(Br)cc1Br [CU544, (1E,6E)-1-(2,4-dibromo-5-hydroxyphenyl)-7-(4-hydroxyphenyl)hepta-1,6-diene-3,5-dione]	255 to 259
O=C(/C=C/c1ccc(O)cc1)CC(=O)/C=C/c1ccc(Oc2ccccc2)cc1 [CU213, (1E,6E)-1-(4-hydroxyphenyl)-7-(4-phenoxyphenyl)hepta-1,6-diene-3,5-dione]	175 to 178
COc1c(O)cccc1/C=C/C(=O)CC(=O)/C=C/c1cccc(O)c1OC [CU363, (1E,6E)-1,7-bis(3-hydroxy-2-methoxyphenyl)hepta-1,6-diene-3,5-dione]	62 to 65
CC(C)(C)OC(=O)N[C@@H](Cc1ccccc1)C(=O)Nc1ccc(/C=C/C(=O)CC(=O)/C=C/c2ccc(O)cc2)cc1 [CU396, (1E,6E)-1-(4-hydroxyphenyl)-7-[4-((S)-2-tert-butoxycarbonylamino-3-phenylpropionylamino)phenyl]hepta-1,6-diene-3,5-dione]	116 to 121

Structure (SMILES)	melting point [°C]
O=C(/C=C/c1ccc(O)cc1)CC(=O)/C=C/c1ccc(Cl)c(Cl)c1 [CU045, (1E,6E)-1-(3,4-dichlorophenyl)-7-(4-hydroxyphenyl)hepta-1,6-diene-3,5-dione]	83 to 85
O=C(/C=C/c1ccc(O)cc1)CC(=O)/C=C/c1ccc2c(c1)OCO2 [CU215, (1E,6E)-1-(benzo[1,3]dioxol-5-yl)-7-(4-hydroxyphenyl)hepta-1,6-diene-3,5-dione]	197 to 200
COc1cc(/C=C/C(=O)CC(=O)/C=C/c2ccc(O)cc2)cc(OC)c1O [CU134, (1E,6E)-1-(4-hydroxy-3,5-dimethoxyphenyl)-7-(4-hydroxyphenyl)hepta-1,6-diene-3,5-dione]	228 to 233
CN(C)CCCOc1ccc(/C=C/C(=O)CC(=O)/C=C/c2ccc(O)cc2)cc1 [CU236, (1E,6E)-1-[4-(3-dimethylaminopropoxy)phenyl]-7-(4-hydroxyphenyl)hepta-1,6-diene-3,5-dione]	140 to 143
CN(C)c1ccc(/C=C/C(=O)CC(=O)CCc2ccc(O)cc2)c([N+](=O)[O-])c1 [CU523, (E)-1-(4-dimethylamino-2-nitrophenyl)-7-(4-hydroxyphenyl)hept-1-ene-3,5-dione]	136 to 142
COc1cc(/C=C/C(=O)CC(=O)/C=C/c2ccc(N(C)C)cc2OC)ccc1O [CU154, (1E,6E)-1-(4-dimethylamino-2-methoxyphenyl)-7-(4-hydroxy-3-methoxyphenyl)hepta-1,6-diene-3,5-dione]	117 to 119
CN(C)C(=O)c1ccccc1/C=C/C(=O)CC(=O)/C=C/c1ccc(O)cc1 [CU479, (1E,6E)-1-[2-(dimethylaminocarbonyl)phenyl]-7-(4-hydroxyphenyl)hepta-1,6-diene-3,5-dione]	210 to 218
COc1ccc(/C=C/C(=O)CC(=O)/C=C/c2ccc(O)c(F)c2)cc1O [CU035, (1E,6E)-1-(3-fluoro-4-hydroxyphenyl)-7-(3-hydroxy-4-methoxyphenyl)hepta-1,6-diene-3,5-dione]	173 to 176
COc1cccc(OC)c1/C=C/C(=O)CC(=O)/C=C/c1ccc(O)cc1 [CU102, (1E,6E)-1-(2,6-dimethoxyphenyl)-7-(4-hydroxyphenyl)hepta-1,6-diene-3,5-dione]	165 to 170
COc1cc(=O)oc2ccc(/C=C/C(=O)CC(=O)/C=C/c3ccc(O)cc3)cc12 [CU415, (1E,6E)-1-(4-hydroxyphenyl)-7-(4-methoxycoumarin-6-yl)hepta-1,6-diene-3,5-dione]	250 to 254
Cc1ccc(S(=O)(=O)n2ccc3ccc(/C=C/C(=O)CC(=O)/C=C/c4ccc(O)cc4)cc32)cc1 [CU404, (1E,6E)-1-(4-hydroxyphenyl)-7-(1-tosyl-1H-indol-6-yl)hepta-1,6-diene-3,5-dione]	107 to 112
O=C(/C=C/c1ccc(O)cc1)CC(=O)/C=C/c1cc(O)ccc1O [CU090, (1E,6E)-1-(2,5-dihydroxyphenyl)-7-(4-hydroxyphenyl)hepta-1,6-diene-3,5-dione]	133 to 140
COc1ccc(/C=C/C(=O)CC(=O)/C=C/c2cccc3cccnc23)cc1O [CU454, (1E,6E)-1-(3-hydroxy-4-methoxyphenyl)-7-(quinolin-8-yl)hepta-1,6-diene-3,5-dione]	80 to 85
COc1cccc(/C=C/C(=O)CC(=O)/C=C/c2ccc(O)cc2)c1 [CU158, (1E,6E)-1-(4-hydroxyphenyl)-7-(3-methoxyphenyl)hepta-1,6-diene-3,5-dione]	74 to 80
CCCN(CCC)C(=O)c1cccc(/C=C/C(=O)CC(=O)/C=C/c2ccc(O)cc2)c1 [CU474, (1E,6E)-1-[3-(di-n-propylaminocarbonyl)phenyl]-7-(4-hydroxyphenyl)hepta-1,6-diene-3,5-dione]	159 to 165
O=C(/C=C/c1cccc2cccnc12)CC(=O)/C=C/c1cccc2cccnc12 [CU414, (1E,6E)-1,7-bis(quinolin-8-yl)hepta-1,6-diene-3,5-dione]	202 to 208
O=C(/C=C/c1ccc(O)cc1)CC(=O)/C=C/c1ccc2c(c1)OCCO2 [CU232, (1E,6E)-1-(2,3-dihydrobenzo[1,4]dioxin-6-yl)-7-(4-hydroxyphenyl)hepta-1,6-diene-3,5-dione]	169 to 173
COc1cc(/C=C/C(=O)CC(=O)/C=C/c2ccc(O)cc2)ccc1F [CU137, (1E,6E)-1-(4-fluoro-3-methoxyphenyl)-7-(4-hydroxyphenyl)hepta-1,6-diene-3,5-dione]	136 to 143
CSc1ccc(/C=C/C(=O)CC(=O)/C=C/c2ccc(O)cc2)cc1 [CU235, (1E,6E)-1-(4-hydroxyphenyl)-7-(4-methylthiophenyl)hepta-1,6-diene-3,5-dione]	169 to 171
COc1cc(/C=C/C(=O)CC(=O)/C=C/c2ccc(O)cc2)ccc1[N+](=O)[O-] [CU050, (1E,6E)-1-(4-hydroxyphenyl)-7-(3-methoxy-4-nitrophenyl)hepta-1,6-diene-3,5-dione]	190 to 192
